± gives the standard deviation of the averaged measurements.
How the values were obtained:
Experiment in all cases: relative cell number vs DMSO control (72 h) (% of DMSO); higher = less growth inhibition (more cells)
Conditions in all cases: sgRNA knockout: sgNT
MDA-MB-231 = system: MDA-MB-231
Experimental: (§1)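 QMAP-Seq: a pool of 5 breast cancer cell lines (ZR-75-1, SKBR3, HCC-38, MDA-MB-231, BT-20), each carrying 12 doxycycline-inducible Cas9 sgRNA perturbations (11 knockouts plus non-targeting sgNT), was treated with compounds for 72 h at four 10-fold doses (10 nM-10 uM or 1 nM-1 uM range). Barcodes were amplified and sequenced, and cell number was interpolated from 293T spike-in standard curves. The result is expressed as % of the median of DMSO wells. Two biological replicates.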

ZR-75-1 = system: ZR-75-1
Experimental: as §1

HCC-38 = system: HCC-38
Experimental: as §1

SKBR3 = system: SKBR3
Experimental: as §1

BT-20 = system: BT-20
Experimental: as §1

Cc1ccc2c(c1)C(=O)C1(O)CCN(c3ccccc3)C1=N2 (stereo not given) [Blebbistatin]
relative cell number (MDA-MB-231; 10 nM): 110 ± 16
relative cell number (MDA-MB-231; 100 nM): 138.4 ± 0.51
relative cell number (MDA-MB-231; 1000 nM): 144 ± 49
relative cell number (MDA-MB-231; 10000 nM): 97 ± 12
relative cell number (ZR-75-1; 10 nM): 108 ± 9.9
relative cell number (ZR-75-1; 100 nM): 112 ± 9.8
relative cell number (ZR-75-1; 1000 nM): 98.1 ± 39
relative cell number (ZR-75-1; 10000 nM): 84.1 ± 7.3
relative cell number (HCC-38; 10 nM): 125 ± 10
relative cell number (HCC-38; 100 nM): 118 ± 4.2
relative cell number (HCC-38; 1000 nM): 115 ± 13
relative cell number (HCC-38; 10000 nM): 69.5 ± 7.5
relative cell number (SKBR3; 10 nM): 114 ± 20
relative cell number (SKBR3; 100 nM): 111 ± 16
relative cell number (SKBR3; 1000 nM): 126 ± 11
relative cell number (SKBR3; 10000 nM): 96.52 ± 0.14
relative cell number (BT-20; 10 nM): 115.9 ± 0.31
relative cell number (BT-20; 100 nM): 128 ± 6.2
relative cell number (BT-20; 1000 nM): 130 ± 4
relative cell number (BT-20; 10000 nM): 125 ± 46

CC(C)C[C@H](NC(=O)[C@H](Cc1ccccc1)NC(=O)c1cnccn1)B(O)O [Bortezomib]
relative cell number (MDA-MB-231; 1 nM): 86.7 ± 9.3
relative cell number (MDA-MB-231; 10 nM): 65.2 ± 19
relative cell number (MDA-MB-231; 100 nM): 6.68 ± 5
relative cell number (MDA-MB-231; 1000 nM): 13.2 ± 6.6
relative cell number (ZR-75-1; 1 nM): 72 ± 20
relative cell number (ZR-75-1; 10 nM): 80 ± 17
relative cell number (ZR-75-1; 100 nM): 17.2 ± 3.5
relative cell number (ZR-75-1; 1000 nM): 13.4 ± 2.8
relative cell number (HCC-38; 1 nM): 91.8 ± 5.8
relative cell number (HCC-38; 10 nM): 36.8 ± 2.4
relative cell number (HCC-38; 100 nM): 4.58 ± 0.053
relative cell number (HCC-38; 1000 nM): 7.2 ± 1.2
relative cell number (SKBR3; 1 nM): 94.4 ± 13
relative cell number (SKBR3; 10 nM): 34.3 ± 8
relative cell number (SKBR3; 100 nM): 14.2 ± 4.1
relative cell number (SKBR3; 1000 nM): 9.59 ± 4
relative cell number (BT-20; 1 nM): 71.71 ± 0.27
relative cell number (BT-20; 10 nM): 74.6 ± 13
relative cell number (BT-20; 100 nM): 24.7 ± 9.2
relative cell number (BT-20; 1000 nM): 16.7 ± 2.3

C[C@H]1CCC/C=C/[C@@H]2C[C@H](O)C[C@H]2[C@H](O)/C=C/C(=O)O1 [BrefeldinA]
relative cell number (MDA-MB-231; 10 nM): 108 ± 22
relative cell number (MDA-MB-231; 100 nM): 14.1 ± 7.9
relative cell number (MDA-MB-231; 1000 nM): 7.55 ± 2.6
relative cell number (MDA-MB-231; 10000 nM): 9.31 ± 2.6
relative cell number (ZR-75-1; 10 nM): 86.8 ± 14
relative cell number (ZR-75-1; 100 nM): 18.7 ± 2.6
relative cell number (ZR-75-1; 1000 nM): 8.03 ± 3.4
relative cell number (ZR-75-1; 10000 nM): 5.82 ± 3.4
relative cell number (HCC-38; 10 nM): 92.1 ± 16
relative cell number (HCC-38; 100 nM): 54.8 ± 7.7
relative cell number (HCC-38; 1000 nM): 35.3 ± 11
relative cell number (HCC-38; 10000 nM): 23.6 ± 7.5
relative cell number (SKBR3; 10 nM): 89.9 ± 43
relative cell number (SKBR3; 100 nM): 17.7 ± 11
relative cell number (SKBR3; 1000 nM): 5.96 ± 2.5
relative cell number (SKBR3; 10000 nM): 6.07 ± 0.93
relative cell number (BT-20; 10 nM): 84.9 ± 25
relative cell number (BT-20; 100 nM): 25.6 ± 6.2
relative cell number (BT-20; 1000 nM): 31.1 ± 3.5
relative cell number (BT-20; 10000 nM): 31.5 ± 9.4

Cc1cc2c(F)c(Oc3ncnn4cc(OC[C@@H](C)O)c(C)c34)ccc2[nH]1 [Brivanib]
relative cell number (MDA-MB-231; 10 nM): 107 ± 31
relative cell number (MDA-MB-231; 100 nM): 106 ± 25
relative cell number (MDA-MB-231; 1000 nM): 122 ± 9.6
relative cell number (MDA-MB-231; 10000 nM): 58.7 ± 9.5
relative cell number (ZR-75-1; 10 nM): 86.5 ± 18
relative cell number (ZR-75-1; 100 nM): 66.1 ± 24
relative cell number (ZR-75-1; 1000 nM): 111 ± 19
relative cell number (ZR-75-1; 10000 nM): 53.5 ± 20
relative cell number (HCC-38; 10 nM): 96.9 ± 6.4
relative cell number (HCC-38; 100 nM): 84.3 ± 9.9
relative cell number (HCC-38; 1000 nM): 96.7 ± 2.2
relative cell number (HCC-38; 10000 nM): 84.119 ± 0.073
relative cell number (SKBR3; 10 nM): 112 ± 6.1
relative cell number (SKBR3; 100 nM): 61.5 ± 12
relative cell number (SKBR3; 1000 nM): 82.4 ± 11
relative cell number (SKBR3; 10000 nM): 60.9 ± 28
relative cell number (BT-20; 10 nM): 119 ± 35
relative cell number (BT-20; 100 nM): 78.5 ± 1.6
relative cell number (BT-20; 1000 nM): 109 ± 18
relative cell number (BT-20; 10000 nM): 93.9 ± 4

CC[C@H](Nc1ncnc2[nH]cnc12)c1nc2cccc(F)c2c(=O)n1-c1ccccc1 [CAL101]
relative cell number (MDA-MB-231; 10 nM): 122 ± 4.8
relative cell number (MDA-MB-231; 100 nM): 68.4 ± 19
relative cell number (MDA-MB-231; 1000 nM): 118 ± 38
relative cell number (MDA-MB-231; 10000 nM): 110 ± 9.4
relative cell number (ZR-75-1; 10 nM): 76.6 ± 14
relative cell number (ZR-75-1; 100 nM): 95.6 ± 7.7
relative cell number (ZR-75-1; 1000 nM): 84.5 ± 3.2
relative cell number (ZR-75-1; 10000 nM): 72 ± 15
relative cell number (HCC-38; 10 nM): 87.5 ± 13
relative cell number (HCC-38; 100 nM): 96.1 ± 14
relative cell number (HCC-38; 1000 nM): 86.7 ± 14
relative cell number (HCC-38; 10000 nM): 83.8 ± 32
relative cell number (SKBR3; 10 nM): 77.4 ± 19
relative cell number (SKBR3; 100 nM): 91.3 ± 18
relative cell number (SKBR3; 1000 nM): 87.3 ± 49
relative cell number (SKBR3; 10000 nM): 84.2 ± 3.7
relative cell number (BT-20; 10 nM): 96.9 ± 17
relative cell number (BT-20; 100 nM): 97.88 ± 0.52
relative cell number (BT-20; 1000 nM): 88.6 ± 25
relative cell number (BT-20; 10000 nM): 88.8 ± 26

COc1cc2nccc(Oc3ccc(NC(=O)C4(C(=O)Nc5ccc(F)cc5)CC4)cc3)c2cc1OC [Cabozantinib]
relative cell number (MDA-MB-231; 10 nM): 103 ± 8.6
relative cell number (MDA-MB-231; 100 nM): 88.2 ± 3.7
relative cell number (MDA-MB-231; 1000 nM): 100 ± 3.8
relative cell number (MDA-MB-231; 10000 nM): 36.7 ± 24
relative cell number (ZR-75-1; 10 nM): 132 ± 14
relative cell number (ZR-75-1; 100 nM): 102 ± 2.8
relative cell number (ZR-75-1; 1000 nM): 111 ± 40
relative cell number (ZR-75-1; 10000 nM): 28.3 ± 19
relative cell number (HCC-38; 10 nM): 87.7 ± 22
relative cell number (HCC-38; 100 nM): 104 ± 2.3
relative cell number (HCC-38; 1000 nM): 97.8 ± 2.8
relative cell number (HCC-38; 10000 nM): 61.9 ± 9.7
relative cell number (SKBR3; 10 nM): 128 ± 10
relative cell number (SKBR3; 100 nM): 130 ± 11
relative cell number (SKBR3; 1000 nM): 82.9 ± 26
relative cell number (SKBR3; 10000 nM): 25.8 ± 17
relative cell number (BT-20; 10 nM): 110 ± 3.4
relative cell number (BT-20; 100 nM): 98.3 ± 13
relative cell number (BT-20; 1000 nM): 94.5 ± 5
relative cell number (BT-20; 10000 nM): 49.8 ± 18

Reference: the supplement of paper PMC7661543
